Broadly, the IC50 is the concentration that inhibits the measured activity by half.

For the assay, the target named is T1, human vanilloid receptor VR-1 (hVR1) (Homo sapiens, UniProt Q8NER1).
T1 construct: expressed in transfected cells; host or cells: HEK293 Tet-on cells (hVR1-HEK293), expression induced with doxycycline
The assay can be described thus: Calcium influx test of vanilloid receptor (capsaicin-induced, Fluo-3/AM, hVR1-HEK293 cells). The assay is classed as cell-based. The following applies: for IC50: calcium influx induced by 1 μM capsaicin, read-out: Inhibitory effect IC50 (nM) on calcium influx; for inhibition at 0.2 µM: single concentration of compound 200 nM, 1 μM capsaicin, read-out: Inhibitory effect (%) on calcium influx. The procedure:
In order to measure an activity of the biaryl benzoimidazole derivative of the invention as an antagonist, a calcium influx test was performed.
An hVR1-HEK293 cell line is a cell line, in which a Human Embryonic Kidney (HEK) 293 Tet-on cell is transformed with a human vanilloid-1 gene (pTRE2hyg-hVR1, 7.8 kb). The cell line can regulate a VR-1 expression, depending on the administration of a tetracycline analogue, doxycycline. At two days before the calcium influx test, the cell line was cultured in media containing doxycycline to induce the VR-1 expression, and then used. First, the hVR1-HEK293 cells were cultured in T75 flasks to have a density of about 80%, and then detached from the bottom of the flasks by using trypsin. The detached cells were centrifuged and collected. Then, the cells were suspended in media containing 1 μg/mL doxycycline, and diluted to have a concentration of 2×10^5 to 4×10^5 cells/mL. 100 μL of the suspended cells were added to each well of 96-well black plate, cultured at 37° C. and 5% CO2 cell incubator for two days, and then used in the calcium influx test.
The compound was dissolved in dimethyl sulfoxide (DMSO), and then used for the calcium influx test.
In order to measure the calcium influx […], the cells were cultured in a solution containing Fluo-3/AM, which is a calcium indicator, at 37° C. for 90 minutes, so as to be permeated by a fluorescent dye. […] 193 μL D-PBS were added to each well, and then the compound was added thereto in various concentrations. To measure an activity as an antagonist, the cells were treated with 1 μM capsaicin to stimulate the calcium influx. The inhibitory effect of the compound when calcium influx was induced by 1 μM capsaicin was measured depending on its concentration using a fluorescence spectrometer, and the obtained data were substituted into a hill equation to analyze the values.
The inhibitory effect on calcium influx was measured with a single concentration of the compounds of the invention (200 nM), and the result thereof are shown in Table 2.

T1 sequence (Q8NER1 whole entry): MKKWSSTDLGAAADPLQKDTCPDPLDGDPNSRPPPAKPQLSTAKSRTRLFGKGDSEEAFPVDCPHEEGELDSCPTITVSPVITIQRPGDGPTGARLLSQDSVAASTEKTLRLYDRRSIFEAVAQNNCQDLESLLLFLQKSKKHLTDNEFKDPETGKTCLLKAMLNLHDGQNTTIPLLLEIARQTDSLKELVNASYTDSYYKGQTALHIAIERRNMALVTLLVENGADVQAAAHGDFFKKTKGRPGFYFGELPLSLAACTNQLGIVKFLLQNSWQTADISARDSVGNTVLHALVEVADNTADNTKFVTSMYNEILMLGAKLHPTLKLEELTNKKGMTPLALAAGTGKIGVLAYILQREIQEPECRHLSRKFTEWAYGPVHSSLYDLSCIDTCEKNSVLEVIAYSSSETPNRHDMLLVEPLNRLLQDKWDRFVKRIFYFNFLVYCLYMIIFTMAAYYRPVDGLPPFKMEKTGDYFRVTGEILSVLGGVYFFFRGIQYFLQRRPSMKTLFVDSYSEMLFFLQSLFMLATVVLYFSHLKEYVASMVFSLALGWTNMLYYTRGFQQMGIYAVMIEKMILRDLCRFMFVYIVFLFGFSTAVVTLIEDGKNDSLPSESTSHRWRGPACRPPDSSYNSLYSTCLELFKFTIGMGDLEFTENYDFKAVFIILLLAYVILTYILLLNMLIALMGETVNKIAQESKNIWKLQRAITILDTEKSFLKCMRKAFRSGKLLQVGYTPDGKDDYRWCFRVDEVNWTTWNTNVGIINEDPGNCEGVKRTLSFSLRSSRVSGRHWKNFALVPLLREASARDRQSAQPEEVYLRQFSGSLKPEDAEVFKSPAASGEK

On to `O=Cc1cnc(-c2ccc(-c3nc4ccc(C(F)(F)F)cc4[nH]3)cc2)c(Cl)c1` [Compound 58, 5-chloro-6-[4-(6-trifluoromethyl-1H-benzoimidazol-2-yl)-phenyl]-pyridine-3-carbaldehyde], for which the IC50 was determined as 94.5 nM and the inhibition at 0.2 µM was determined as 39.1%. For `CC(C)(C)c1ccc2nc(-c3ccc(-c4ncc(C=O)cc4Cl)cc3)[nH]c2c1` [Compound 59, 6-[4-(6-tert-butyl-1H-benzoimidazol-2-yl)-phenyl]-5-chloro-pyridine-3-carbaldehyde], in that order: 29.5 nM and 82.5%. For the compound `CCNC(=O)c1cnc(-c2ccc(-c3nc4ccc(C(F)(F)F)cc4[nH]3)cc2)c(Cl)c1` [Compound 61, 5-chloro-N-ethyl-6-[4-(6-trifluoromethyl-1H-benzoimidazol-2-yl)-phenyl]-nicotinamide], the inhibition at 0.2 µM stood at 23.4%. For `CCNC(=O)c1cnc(-c2ccc(-c3nc4ccc(C(C)(C)C)cc4[nH]3)cc2)c(Cl)c1` [Compound 62, 6-[4-(6-tert-butyl-1H-benzoimidazol-2-yl)-phenyl]-5-chloro-N-ethyl-nicotinamide], the IC50 turned out to be 126 nM and the inhibition at 0.2 µM was determined as 54.3%. For `CCNC(=O)c1cnc(-c2ccc(-c3nc4ccc(Br)cc4[nH]3)cc2)c(Cl)c1` [Compound 63, 6-[4-(6-bromo-1H-benzoimidazol-2-yl)-phenyl]-5-chloro-N-ethyl-nicotinamide], in that order: 397 nM and 38.3%.

Regarding `CCNC(=O)c1cnc(-c2ccc(-c3nc4ncc(Br)cc4[nH]3)cc2)c(Cl)c1` [Compound 64, 6-[4-(6-bromo-1H-imidazo[4,5-b]pyridin-2-yl)-phenyl]-5-chloro-N-ethyl-nicotinamide], the inhibition at 0.2 µM came out at 11.1%. Still for that read-out and setting: as for `CCNC(=O)c1cnc(-c2ccc(-c3nc4c(Br)cc(C(F)(F)F)cc4[nH]3)cc2)c(Cl)c1` [Compound 65, 6-[4-(4-bromo-6-trifluoromethyl-1H-benzoimidazol-2-yl)-phenyl]-5-chloro-N-ethyl-nicotinamide], the figure is 30.9%. As for `C=Cc1cnc(-c2ccc(-c3nc4ccc(C(F)(F)F)cc4[nH]3)nc2)c(Cl)c1` [Compound 66, 3-chloro-6′-(6-trifluoromethyl-1H-benzoimidazol-2-yl)-5-vinyl-[2,3′]bipyridinyl], the inhibition at 0.2 µM was 0.2%. On the same count and under the same terms, as for `C=Cc1cnc(-c2ccc(-c3nc4ccc(C(C)(C)C)cc4[nH]3)nc2)c(Cl)c1` [Compound 67, 6′-(6-tert-butyl-1H-benzoimidazol-2-yl)-3-chloro-5-vinyl-[2,3′]bipyridinyl], the figure is -8.8%; as for `C=Cc1cnc(-c2ccc(-c3nc4ccc(Br)cc4[nH]3)nc2)c(Cl)c1` [Compound 68, 6′-(6-bromo-1H-benzoimidazol-2-yl)-3-chloro-5-vinyl-[2,3′]bipyridinyl], -2.2%. As for `C=Cc1cnc(-c2ccc(-c3nc4ccc(Cl)cc4[nH]3)nc2)c(Cl)c1` [Compound 69, 3-chloro-6′-(6-chloro-1H-benzoimidazol-2-yl)-5-vinyl-[2,3′]bipyridinyl], the inhibition at 0.2 µM was 11.3%. For the compound `C=Cc1cnc(-c2ccc(-c3nc4c(Br)cc(C(F)(F)F)cc4[nH]3)nc2)c(Cl)c1` [Compound 70, 6′-(4-bromo-6-trifluoromethyl-1H-benzoimidazol-2-yl)-3-chloro-5-vinyl-[2,3′]bipyridinyl], the inhibition at 0.2 µM worked out at 0%. The same measure, in the same setting: as for `COC(=O)c1cnc(-c2ccc(-c3nc4ccc(N5CCOCC5)cc4[nH]3)nc2)c(Cl)c1` [Compound 71, 3-chloro-6′-(6-morpholin-4-yl-1H-benzoimidazol-2-yl)-[2,3′]bipyridinyl-5-carboxylic acid methyl ester], the figure is 7.1%. Turning to `COC(=O)c1cnc(-c2ccc(-c3nc4ccc(C(C)(C)C)cc4[nH]3)nc2)c(Cl)c1` [Compound 74, 6′-(6-tert-butyl-1H-benzoimidazol-2-yl)-3-chloro-[2,3′]bipyridinyl-5-carboxylic acid methyl ester], the IC50 worked out at 26.2 nM and the inhibition at 0.2 µM stood at 81.3%. `COC(=O)c1cnc(-c2ccc(-c3nc4ccc(Br)cc4[nH]3)nc2)c(Cl)c1` [Compound 75, 6′-(6-bromo-1H-benzoimidazol-2-yl)-3-chloro-[2,3′]bipyridinyl-5-carboxylic acid methyl ester]: the inhibition at 0.2 µM was determined as 45.3%. Still for that read-out and setting: the same measure for `COC(=O)c1cnc(-c2ccc(-c3nc4ncc(Br)cc4[nH]3)nc2)c(Cl)c1` [Compound 76, 6′-(6-bromo-1H-imidazo[4,5-b]pyridin-2-yl)-3-chloro-[2,3′]bipyridinyl-5-carboxylic acid methyl ester]: 7%; for `COC(=O)c1cnc(-c2ccc(-c3nc4c(Br)cc(C(F)(F)F)cc4[nH]3)nc2)c(Cl)c1` [Compound 77, 6′-(4-bromo-6-trifluoromethyl-1H-benzoimidazol-2-yl)-3-chloro-[2,3′]bipyridinyl-5-carboxylic acid methyl ester]: 48.9%; for `COC(=O)c1cnc(-c2ccc(-c3nc4c(Br)cc(Br)cc4[nH]3)nc2)c(Cl)c1` [Compound 78, 3-chloro-6′-(4,6-dibromo-1H-benzoimidazol-2-yl)-[2,3′]bipyridinyl-5-carboxylic acid methyl ester]: 4.1%. With `O=C(O)c1cnc(-c2ccc(-c3nc4ccc(N5CCOCC5)cc4[nH]3)nc2)c(Cl)c1` [Compound 79, 3-chloro-6′-(6-morpholin-4-yl-1H-benzoimidazol-2-yl)-[2,3′]bipyridinyl-5-carboxylic acid], the inhibition at 0.2 µM was found to be 3.3%. On the same count and under the same terms, the same measure for `CN1CCN(c2ccc3nc(-c4ccc(-c5ncc(C(=O)O)cc5Cl)cn4)[nH]c3c2)CC1` [Compound 80, 3-chloro-6′-[6-(4-methyl-piperazin-1-yl)-1H-benzoimidazol-2-yl]-[2,3′]bipyridinyl-5-carboxylic acid]: -5%. Still for that read-out and setting: as for `O=C(O)c1cnc(-c2ccc(-c3nc4ccc(C(F)(F)F)cc4[nH]3)nc2)c(Cl)c1` [Compound 81, 3-chloro-6′-(6-trifluoromethyl-1H-benzoimidazol-2-yl)-[2,3′]bipyridinyl-5-carboxylic acid], the figure is 9.6%; as for `CC(C)(C)c1ccc2nc(-c3ccc(-c4ncc(C(=O)O)cc4Cl)cn3)[nH]c2c1` [Compound 82, 6′-(6-tert-butyl-1H-benzoimidazol-2-yl)-3-chloro-[2,3′]bipyridinyl-5-carboxylic acid], 6.7%. Same read-out and setting: the same measure for `O=C(O)c1cnc(-c2ccc(-c3nc4ccc(Br)cc4[nH]3)nc2)c(Cl)c1` [Compound 83, 6′-(6-bromo-1H-benzoimidazol-2-yl)-3-chloro-[2,3′]bipyridinyl-5-carboxylic acid]: 22.8%; for `O=C(O)c1cnc(-c2ccc(-c3nc4ncc(Br)cc4[nH]3)nc2)c(Cl)c1` [Compound 84, 6′-(6-bromo-1H-imidazo[4,5-b]pyridin-2-yl)-3-chloro-[2,3′]bipyridinyl-5-carboxylic acid]: 6.3%; for `O=C(O)c1cnc(-c2ccc(-c3nc4c(Br)cc(C(F)(F)F)cc4[nH]3)nc2)c(Cl)c1` [Compound 85, 6′-(4-bromo-6-trifluoromethyl-1H-benzoimidazol-2-yl)-3-chloro-[2,3′]bipyridinyl-5-carboxylic acid]: 4.2%. As to `OCc1cnc(-c2ccc(-c3nc4ccc(N5CCOCC5)cc4[nH]3)nc2)c(Cl)c1` [Compound 87, [3-chloro-6′-(6-morpholin-4-yl-1H-benzoimidazol-2-yl)-[2,3′]bipyridinyl-5-yl]-methanol], the inhibition at 0.2 µM is 3.7%. The same measure, in the same setting: as for `CN1CCN(c2ccc3nc(-c4ccc(-c5ncc(CO)cc5Cl)cn4)[nH]c3c2)CC1` [Compound 88, {3-chloro-6′-[6-(4-methyl-piperazin-1-yl)-1H-benzoimidazol-2-yl]-[2,3′]bipyridinyl-5-yl}-methanol], the figure is 15.3%. Take `OCc1cnc(-c2ccc(-c3nc4ccc(C(F)(F)F)cc4[nH]3)nc2)c(Cl)c1` [Compound 89, [3-chloro-6′-(6-trifluoromethyl-1H-benzoimidazol-2-yl)-[2,3′]bipyridinyl-5-yl]-methanol]: the IC50 worked out at 338 nM and the inhibition at 0.2 µM was 30%. The like results for `CC(C)(C)c1ccc2nc(-c3ccc(-c4ncc(CO)cc4Cl)cn3)[nH]c2c1` [Compound 90, [6′-(6-tert-butyl-1H-benzoimidazol-2-yl)-3-chloro-[2,3′]bipyridinyl-5-yl]-methanol] were, in that order, 158 nM and 42.7%. For `OCc1cnc(-c2ccc(-c3nc4ccc(Br)cc4[nH]3)nc2)c(Cl)c1` [Compound 91, [6′-(6-bromo-1H-benzoimidazol-2-yl)-3-chloro-[2,3′]bipyridinyl-5-yl]-methanol], in that order: 517 nM and 27.6%.

The record behind these values is US8940769B2, “Biaryl benzoimidazole derivatives and pharmaceutical composition comprising the same” (Daewoong Pharmaceutical Co., Ltd., priority 2006, dated 2015).
